According to patent publication US20170008841A1, “CRYSTAL FORMS OF ASTAXANTHIN” (DSM IP ASSETS B.V., priority 2008, published 2017):
≈ marks a conversion by molar mass, not a printed value. Where two headings read alike, the source gives them in different places.

Experiments:
Type in all cases: physicochemical
[1] = Stability of forms I and II in solid form / solid formulations (UV retention)
Description: Two solid formulations of the crystal forms I and II were prepared according to methods mentioned above. The formulations have been analyzed by Raman spectroscopy and—with regard to stability—by UV retention, a commonly used method for stability measurements.
The samples used in this experiment are: • Sample A: crystal form I prepared with methylene chloride • Sample B: crystal form II prepared with chloroform • For both formulations a matrix-composition consisting of a H2O-phase (Ca-Lignosulfonate & Yellow dextrin) and a Oil-phase (CH2Cl2) have been used. • Sample C: As a control commercial product Carophyll Pink 10%-CWS from DSM Nutritional Products Ltd was used. • In this case the following matrix-composition was used: H2O-phase: Ca-Lignosulfonate & Yellow dextrin; Oil-phase: CH2Cl2, & d,l-a-tocopherol, bees wax.)

[2] = Ideal solubility calculated of forms I and II in DCM from melting points and heat of fusion (DSC data)
Description: The ideal solubility can be estimated by using the equation with measured melting points and heat of fusion form DCS data.

[3] = Solubility measurements of astaxanthin form I and II in different solvents
Description: The solubilities of astaxanthin form I and II in different solvents were compared. Due to the very low solubility in some solvents (Isopropanol and corn oil), experiments in these two solvents were measured by using an UV-VIS meter. The saturated solutions were prepared at different temperature in a double jacked vessel and 1 ml of the solution was taken out and measured by the UV-VIS meter. To calculate the real concentration in these solvents, the calibration was made firstly by building up the correlation between absorbance unit and solution concentration.

[4] = Solvent-mediated transformation, slurry conversion experiments (XRPD of resulting crystals)
Description: Solvent-mediated polymorphic transformation is an efficient technique to study the phase stability of different crystal forms in various solvents. […] As transformation rates in different solvents vary from minutes to years, an appropriate solvent should be chosen to either facilitate or retard the transformation.
Currently, the choice of a solvent is still done by trial and error, which is time consuming. In accordance with the present invention, the stability test was carried out by the slurry conversion experiments in six different solvents. Form II (and in one case form I) is suspended as the initial form and the resulting crystals were analyzed by XRPD.

With `CC1=C(/C=C/C(C)=C/C=C/C(C)=C/C=C/C=C(C)/C=C/C=C(C)/C=C/C2=C(C)C(=O)[C@@H](O)CC2(C)C)C(C)(C)C[C@H](O)C1=O` (relative stereo) [form II, all-trans-astaxanthin] as the compound, how does the “stable in solid form” value ([1]; 20° C.) read?
The value was “at least 90 days”.

What about the “Conc. (ideal solubility calculated)” value ([2]; DCM, Cal. T 12.00 ° C.) of the same compound?
The value was 0.02 g/mL.

And the “Ratio (Conc.) form II to form I (ideal solubility calculated)” value (“Ratio … (ideal solubility calculated)” for short) ([2]; DCM, Cal. T 12.00 ° C.)?
Its value is 3530.79.

And the “Conc. (ideal solubility calculated)” value ([2]; DCM, Cal. T 21.80 ° C.)?
The value was 0.04 g/mL.

What about the “Ratio … (ideal solubility calculated)” value ([2]; DCM, Cal. T 21.80 ° C.) of the same compound?
Its value is 1927.23.

And the “Conc. (ideal solubility calculated)” value ([2]; DCM, Cal. T 30.70 ° C.)?
The value was 0.06 g/mL.

What about the “Ratio … (ideal solubility calculated)” value ([2]; DCM, Cal. T 30.70 ° C.) of the same compound?
The value was 1151.20.

And the “Conc. (ideal solubility calculated)” value ([2]; DCM, Cal. T 39.00 ° C.)?
Its value is 0.08 g/mL.

What about the “Ratio … (ideal solubility calculated)” value ([2]; DCM, Cal. T 39.00 ° C.) of the same compound?
The value was 731.67.

And the Solubility ([3]; Acetone, 20° C.)?
The Solubility was 9.0 mg · 100 ml^−1.

What about the Solubility ([3]; DCM, 20° C.) of the same compound?
The Solubility was 1082.0 mg · 100 ml^−1.

And the Conc. ([3]; DCM, Exp. T 12.00 ° C.)?
Its Conc. is 0.02 g/mL.

What about the “Ln X” value ([3]; DCM, Exp. T 12.00 ° C.) of the same compound?
The value was −6.19.

What about the “Ratio (Conc.) form II to form I” value ([3]; DCM, Exp. T 12.00 ° C.) of the same compound?
Its value is 1.68.

What about the Conc. ([3]; DCM, Exp. T 21.80 ° C.) of the same compound?
Its Conc. is 0.02 g/mL.

What about the “Ln X” value ([3]; DCM, Exp. T 21.80 ° C.) of the same compound?
The value was −5.96.

What about the “Ratio (Conc.) form II to form I” value ([3]; DCM, Exp. T 21.80 ° C.) of the same compound?
Its value is 1.83.

What about the Conc. ([3]; DCM, Exp. T 30.70 ° C.) of the same compound?
The Conc. was 0.04 g/mL.

What about the “Ln X” value ([3]; DCM, Exp. T 30.70 ° C.) of the same compound?
Its value is −5.52.

And the “Ratio (Conc.) form II to form I” value ([3]; DCM, Exp. T 30.70 ° C.)?
The value was 1.54.

What about the Solubility ([3]; EtOAc, 20° C.) of the same compound?
The Solubility was 10.0 mg · 100 ml^−1.

And the Solubility ([3]; EtOH, 20° C.)?
Its Solubility is 11.8 mg · 100 ml^−1.

What about the Solubility ([3]; IPA, 20° C.) of the same compound?
Its Solubility is 6.0 mg · 100 ml^−1.

And the “solubility in Isopropanol” value ([3]; Isopropanol, 30° C.)?
Its value is 3.4 mg·100 ml^−1.

What about the solubility in acetone ([3]; acetone, 20.5° C.) of the same compound?
Its solubility in acetone is “approximately 8 mg·100 ml^−1”.

And the “Final form after slurry conversion” value ([4]; DCM, 1 day, 20 ° C.)?
The value was “form I”.

What about the “Final form after slurry conversion” value ([4]; EtOAc, 4 days, 40 ° C.) of the same compound?
The value was “form I”.

Which “stable in solid form” value [1] does the source give for `CC1=C(/C=C/C(C)=C/C=C/C(C)=C/C=C/C=C(C)/C=C/C=C(C)/C=C/C2=C(C)C(=O)[C@@H](O)CC2(C)C)C(C)(C)C[C@H](O)C1=O` (relative stereo) [form I, all-trans-astaxanthin] here?
Its value is “at least 5 months”.

What about the “stable in solid form” value ([1]; 20° C.-40° C.) of the same compound?
The value was “at least 90 days”.

And the “Conc. (ideal solubility calculated)” value [2]?
Its value is 0.00 g/mL.

What about the Solubility [3] of the same compound?
Its Solubility is 200.0 mg · 100 ml^−1.

And the solubility [3]?
Its solubility is 10 to 20 mg/mL (≈ 16.8 to 33.5 mM).

What about the “Final form after slurry conversion” value ([4]; Chloroform, 1 day, 20 ° C.) of the same compound?
Its value is “form II”.
